# Legend:
# J20 mice [1] = test: novel object recognition (NOR), episodic memory; assay type: in vivo, mouse
# Protocol: (§1) VX-765 (Adooq Bioscience, Irvine, CA, USA) was dissolved 5 mg • ml^−1 in 20% cremophor in dH2O[60] (Sigma-Aldrich, ON, Canada) and administered IPWT and J20 mice received three injections per week of either 50 mg • kg^−1 VX-765 or 20% cremophor vehicle for 4 weeks between 2 and 3 months of age. Mice were longitudinally followed starting 4 weeks after the last injection [4-week washout (WO)], then every other month at 12- and 20-week WO (6 and 8 months of age, respectively). Intermediate 8- and 16-week WO periods were also looked at with a smaller number of mice. After each WO period, animals were randomly chosen, independent of behavioural performance, for sacrifice and assigned to either histological or biochemical analysis (Fig. 2a).
# (§2) Open-field and novel object recognition (NOR) were measured at all WO periods. The Barnes maze was assessed at 12- and 20-week WO. Open field: Mice were placed in an open-field chamber, composed of a plexiglass box with no ceiling and white floor, and allowed to explore for 5 min. NOR: Mice were pre-exposed to two identical objects in the open-field chamber for 5 min. Two hours after pre-exposure, mice were placed back into the chamber and exposed to one familiar object and one novel object for 5 min (test phase). Mice were exposed to a specific object only once across multiple test sessions. Barnes maze: Learning acquisition (days 1–4)—each mouse was trained to find the target and enter the escape box within 180 s. Four trials per day, ~15 min apart, were performed for 4 consecutive days. Probe (day 5)—a single, 90 s trial was performed on each mouse to measure primary latency and number of errors to reach the blocked target. Target hole location was changed between the two separate test sessions. Behavioural scoring was blinded to mouse genotype and treatment.
# WT mice = test: novel object recognition (NOR), episodic memory; assay type: in vivo, mouse
# Protocol: as §1, §2
# Iba1-positive microglia = Iba1-positive microglia quantification and morphology (immunohistochemistry); assay type: in vivo, mouse
# Protocol: as §1
# Mice for immunohistochemistry were isoflurane anesthetized and perfused with ice-cold 4% paraformaldehyde in 0.1 M PBS (Sigma-Aldrich). Brains were post-fixed overnight in 10% neutral-buffered formalin (ThermoFisher Scientific, ON, Canada) and transferred to 70% ethanol for paraffin embedding and sectioning at 4 μm. Tissue slides underwent heat-induced antigen retrieval with citrate or EDTA buffer. Immunostaining was performed using the Dako Autostainer Plus slide processor and EnVision Flex system (Dako, ON, Canada). Sections were peroxidase treated, blocked in Serum-Free Protein Block, and immunostained with the following antibodies: 1:2000 rabbit anti-Iba1 (Wako, VA, USA), 1:500 rat anti-CD68 (clone FA-11, Bio-Rad, Hercules, CA, USA), 1:8000 rabbit anti-GFAP (Dako) and 1:2000 rabbit anti-Aβ1-40 (F25276, laboratory developed). CD68 antibody required an additional rabbit anti-rat IgG/HRP secondary reagent (Dako) incubation. […] Sections were digitally scanned with MIRAX SCAN (Zeiss, ON, Canada) and used for subsequent analyses.
# Iba1-positive microglia were quantified using a modified version of an area-specific counting frame. The number of Iba1-positive cells per mm^3 in the anterior CA1 region and cortex was estimated across four sections, spaced 60 μm apart. Microglial activation level was determined based on morphological measurements[19],[41]. Aβ1-40 and GFAP immunostaining density was measured across four sections using ImageJ software (NIH, Bethesda, MD, USA). Quantification was blinded to treatment and genotype.
# CD68 = CD68 immunostaining of phagocytic microglia and macrophages; assay type: in vivo, mouse; details: VX-765-treated J20; 20-week WO; no staining in any vehicle-treated J20
# Protocol: as §1
# Mice for immunohistochemistry were isoflurane anesthetized and perfused with ice-cold 4% paraformaldehyde in 0.1 M PBS (Sigma-Aldrich). Brains were post-fixed overnight in 10% neutral-buffered formalin (ThermoFisher Scientific, ON, Canada) and transferred to 70% ethanol for paraffin embedding and sectioning at 4 μm. Tissue slides underwent heat-induced antigen retrieval with citrate or EDTA buffer. Immunostaining was performed using the Dako Autostainer Plus slide processor and EnVision Flex system (Dako, ON, Canada). […]
# [2] = tested on: Nlrp1, Nlrp3, Asc, Casp1, Casp6, Casp11, Casp3; test: inflammasome and caspase expression (PCR, Casp1 western blot); assay type: in vivo, mouse
# Protocol: as §1
# Twenty to sixty micrograms of protein or 16 μl of precipitated protein from culture medium were separated on SDS-PAGE or 4–12% NuPAGE Bis-Tris gels (Invitrogen, Carlsbad, CA, USA) with MES buffer (Invitrogen) and transferred onto PVDF membranes (Bio-Rad) according to the manufacturer’s instructions. Membranes were probed with the following antibodies: 1:1000 mouse anti-Aβ1-16 (6E10) (BioLegend, CA, USA), 1:2000 rabbit anti-APP C-terminus (A8717) (Sigma-Aldrich), 1:1000 rabbit anti-neprilysin (Nep, Abcam, ON, Canada), 1:500 rabbit anti-insulin degrading enzyme (IDE, Abcam), 1:3000 rabbit anti-GFAP (Dako), 1:1000 rabbit anti-IL-1β (Abcam), 1:1000 rat anti-Caspase-1 (clone 4B4.2.1, kindly provided by Genentech, San Francisco, CA, USA) and 1:1000 mouse anti-β-actin (Sigma-Aldrich). […] Signals were visualized with the ImageQuant LAS 4000 imaging system and densitometric analyses were performed with Image Gauge analysis software 3.0 (Fujifilm USA, NY, USA). Protein extracts from three independent mice in each group were run together on each blot. Protein levels were normalized to β-actin and expressed as a percentage relative to the vehicle-treated WT group, except for APP which was compared to the vehicle-treated J20 group. Representative full blots are shown in the Source data file. […]
# Casp1 = tested on: Casp1; design: method as in PMID 30254377; details: in vitro Casp1; cited from earlier work
# [3] = design: method as in PMID 30254377; details: cited from earlier work
# J20 mice [4] = tested on: J20 mice; design: method as in PMID 30254377; details: cited from earlier work
# [5] = tested on: proteolipid protein-synuclein mouse model; design: method as in PMID 27482103; details: proteolipid protein-synuclein mouse model of multiple systems atrophy; cited from earlier work
compound,measurement,setting,value
"CCO[C@@H]1OC(=O)C[C@@H]1NC(=O)[C@@H]1CCCN1C(=O)[C@@H](NC(=O)c1ccc(N)c(Cl)c1)C(C)(C)C [VX-765, (S)-1-((S)-2-{[1-(4-amino-3-chloro-phenyl)-methanoyl]-amino}-3,3-dimethyl-butanoyl)-pyrrolidine-2-carboxylic acid ((2R,3S)-2-ethoxy-5-oxo-tetrahydro-furan-3-yl)-amide]",delay of the onset of cognitive impairment,"J20 mice [1]; J20, 50 mg/kg IP 3x/week for 1 month, pre-symptomatic",at least 5 months
same,NOR discrimination index (NOR impairment),"J20 mice [1]; J20, pre-symptomatic 50 mg/kg IP 3x/week for 1 month, 4-, 8-, 12-, 16- and 20-week WO, vs vehicle-treated J20",protected J20 mice against NOR impairment at all WO periods
same,percentage of NOR impaired mice,"J20 mice [1]; VX-765-treated J20, 50 mg/kg IP 3x/week for 1 month",increased consistently between 4- and 20-week WO
same,NOR performance over washout,"J20 mice [1]; VX-765-treated J20, 50 mg/kg IP 3x/week for 1 month, 4- vs 20-week WO",declined between 4- and 20-week WO
same,NOR performance,"WT mice; VX-765-treated WT, 6-month-old (12-week WO) vs VX-765-treated 4-month-old WT",increased
same,NOR performance,"WT mice; WT, 8-month-old (20-week WO), 50 mg/kg IP 3x/week for 1 month, vs same age vehicle-treated WT",increased
same,percentage of NOR impaired mice,"WT mice; WT, 50 mg/kg IP 3x/week for 1 month, 12- to 20-week WO","increased between 12- and 20-week WO in the vehicle-treated, but not VX-765-treated WT mice"
same,"type III, amoeboid-appearing, microglia","Iba1-positive microglia; J20, 20-week WO",significantly higher in vehicle- and VX-765-treated J20 mice at 20-week WO
same,duration of reduced microglial activation,Iba1-positive microglia; J20 cortex,≤ 5 months
same,duration of reduced microglial activation,Iba1-positive microglia; J20 hippocampus,up to 4 months
same,microglial morphological profile (type I resting / type II activated),Iba1-positive microglia; J20 hippocampus and cortex,"reverted the profile in J20 mice back to a near WT profile at 4-week WO, but it slowly shifted from a resting to an activated state morphologically similar to vehicle-treated J20 mice from 12-week WO onwards"
same,Iba1-positive microglia numbers,"Iba1-positive microglia; J20 hippocampus and cortex, all WO periods","prevented this increase, normalizing Iba1-positive numbers to near WT levels, although numbers did not reach significance in the hippocampus at 8- and 20-week WO"
same,type IV microglia,"Iba1-positive microglia; J20 hippocampus, 20-week WO",elevated in the hippocampus of VX-765-treated J20 mice at 20-week WO
same,mice with CD68 positive staining,CD68,four out of the five
same,full-length Casp1 levels (western blot),"[2]; J20 cortex, 20-week WO","reduced full-length Casp1 levels slightly compared to vehicle-treated J20 mice, but this did not reach statistical significance"
same,"Casp1, Casp6, Casp11 and Casp3 hippocampal mRNA levels",[2]; hippocampus,no differences were observed
same,"Nlrp1, Nlrp3 and Asc hippocampal mRNA levels","[2]; hippocampus, vehicle WT, vehicle J20, VX-765 J20",did not differ between the three treatment groups at any of the WO periods
same,IC50,Casp1,3.68 nM
same,concentration in the J20 brain,"[3]; 50 mg/kg dose of VX-765, carotid infusion, J20 mice",2000 to 5000 nM
same,blood–brain barrier permeability,[3],blood–brain barrier permeable
same,toxicity,J20 mice [4],non-toxic
same,"memory deficits, inflammation, synaptic loss and Aβ accumulation",J20 mice [4]; given at the onset of the J20 mouse symptoms,"reverses spatial and episodic memory deficits, inflammation and synaptic loss, and prevents progressive Aβ accumulation"
same,alpha-synuclein toxicity,[5],protect against alpha-synuclein toxicity

# Reference: article PMC7486940, “Pre-symptomatic Caspase-1 inhibitor delays cognitive decline in a mouse model of Alzheimer disease and aging” (Nature Communications, 2020)
